According to patent US10875863B2, “RIPK2 inhibitors and method of treating cancer with same” (University Health Network, priority 2014, dated 2020):

How the values were obtained:
[1] = system: HCT116 xenografts; assay: In vivo response of HCT116 xenografts, tolerability and body weight; design: species or system CB-17 SCID mice; details: SCID mice with HCT116 xenografts
Procedure: HCT116 colon cancer cells were purchased from ATCC (American Type Culture Collections) and cultured in DMEM (Dulbecco's Modified eagle medium—purchased from GIBCO) supplemented with 10% fetal calf serum. Five million cells were injected subcutaneously in the right flank of 6-8 week old male CB-17 SCID mice. When the mean tumor volume reached 80-120 mm^3, mice were randomized into 5 groups (n=5) and received either vehicle (10% NMP, 40% PEG, 50% H2O) or compound at the doses indicated.
Tumor volume and body weight were measured three times weekly. Tumor volume was calculated by the following formula: x^2y/2. Percent tumor growth inhibition after initiation of treatment with compound was calculated by: TGI=100×1−(tumor volumefinal−tumor volumeinitial for compound treated group)/(tumor volumefinal−tumor volumeinitial for […] control group).

[2] = system: IL-12-yellow fluorescent protein (YFP) reporter mouse bone marrow dendritic cells; assay: IL-12-YFP reporter dendritic cells, flow cytometric analysis; assay type: cell-based; details: 24 hours, LPS or Pam3Cys ± 1 μg/ml MDP
Procedure: (§1) IL-12-yellow fluorescent protein (YFP) reporter mouse bone marrow dendritic cells were stimulated for 24 hours with 0.3 ng/ml LPS±1 μg/ml MDP (i.e., NOD2 agonist) in the presence of Example A3 (FIG. 2A). IL-12-yellow fluorescent protein (YFP) reporter mouse bone marrow dendritic cells were stimulated for 24 hours with 0.3 μg/ml Pam3Cys±1 μg/ml MDP (i.e., NOD2 agonist) in the presence of Example A3 (FIG. 2B). […] Data are represented as the mean±SEM of triplicate measurements. Levels of IL-12 p70 (FIG. 2C, left panel) and TNFα (FIG. 2C, right panel) in the cell culture supernatants from A were measured by ELISA techniques with commercially available kits. […] Data are represented as the mean±SEM of triplicate measurements.

[3] = system: IL-12 p70; assay: IL-12 p70 in dendritic cell culture supernatants by ELISA; assay type: cell-based, mouse; details: supernatants from LPS ± MDP stimulation
Procedure: as §1

[4] = system: TNFα; assay: TNFα in dendritic cell culture supernatants by ELISA; assay type: cell-based, mouse; details: supernatants from LPS ± MDP stimulation
Procedure: as §1

Cc1ccccc1-c1cc2nc(Nc3cccc(N4CCOCC4)c3)ncc2[nH]1 [Example A3, N-(3-morpholinophenyl)-6-(o-tolyl)-5H-pyrrolo[3,2-d]pyrimidin-2-amine]
mean body weight loss ([1]; 92 mg/kg Q.D. p.o.): 7.8%
tolerability ([1]; Q.D. p.o., 18 days): well tolerated
mean body weight loss in the treated arms compared to control ([1]; treated arms versus control): less than 6%
cell viability as assessed by 7AAD exclusion [2]: no measurable effect
percentage of YFP positive cells (IL-12 positive cells) [2]: minimal effect
mean fluorescence intensity YFP (amount of IL-12) ([2]; effect MDP-dependent): dose-dependent reduction
levels of IL-12 p70 in cell culture supernatants [3]: dose-dependent reduction
levels of TNFα in cell culture supernatants [4]: dose-dependent reduction
